Like-named read-outs stand apart in the source and are kept apart here.
Columns and labels:
CHO-K1 cells = experiment: cytotoxicity using CHO-K1 cells; format: cell-based, Chinese hamster; settings: Cricetulus griseus, CHO-K1 ovary sane cell line
Description: (§1) Cytotoxicity was tested using CHO-K1 cells and anti-proliferative activity was examined using HT29 cells.
(§2) The effects were compared with Doxorubicin and Sodium butyrate.

HT29 cells = experiment: anti-proliferative activity using HT29 cells; format: cell-based, human
Description: as §1, §2

| IC50 (HT29 cells; HT-29, HT29 human colon adenocarcinoma, read-out: IC50 (μM) for HT29) [µM] | Compound | IC50 (CHO-K1 cells) [µM] | IC50 (HT29 cells; Homo sapiens, HT-29, read-out: IC50 (μM) for HT29) [µM] |
| --- | --- | --- | --- |
| 1.32 | COc1cccc2c1C(=O)c1c(O)c3c(c(O)c1C2=O)C[C@@](O)(C(=O)CO)C[C@@H]3O[C@H]1C[C@H](N)[C@H](O)[C@H](C)O1 [Doxorubicin] | 1.99 |  |
|  | CCCC(=O)[O-].[Na+] [Sodium butyrate] |  | 4890 |

— US8664186B2, “Stambomycin and derivatives, their production and their uses as drugs” (Universite de Lorraine, priority 2009, dated 2014)
